Structures are written as SMILES. Where a SMILES comes first, the peptide text is derived from it. Bridges are numbered along the chain shown (N, C = ends). The star is where a group is joined. DOTA = O=C(O)CN1CCN(CC(=O)O)CCN(CC(=O)*)CCN(CC(=O)O)CC1

Holding throughout (format): ADME, organism-based, Neoplasm
Data set [1] can be described thus: Drug level in tumor of human MDA-MB-435 cell-xenograft athymic nude mouse model at 10 uM, iv by PET analysis. To be noted: athymic nude mouse (human MDA-MB-435 xenograft), in vivo. Background: In xenograft studies the graft and the host belong to different species.
The nature of data set [2]: Drug level in tumor of human MDA-MB-435 cell-xenograft athymic nude mouse model at 10 uM, iv after 4 hrs by optical imaging analysis. To be noted: in vivo.
Data set [3] is described as follows: Drug level in tumor of human MDA-MB-435 cell-xenograft athymic nude mouse model at 10 uM, iv after 10 mins by optical imaging analysis. As to conditions: in vivo; call rule not given here.

Turning to `CC(=O)N[C@H](CSC1CC(=O)N(CCNC(=O)CCCCC[N+]2=C(/C=C/C3=C(Oc4ccc(S(=O)(=O)[O-])cc4)C(=C/C=C4/N(CCCCS(=O)(=O)[O-])c5ccc(S(=O)(=O)[O-])cc5C4(C)C)/CCC3)C(C)(C)c3cc(S(=O)(=O)[O-])ccc32)C1=O)C(=O)N[C@H]1CSSC[C@@H](C(N)=O)NC(=O)[C@H](CC(=O)O)NC(=O)[C@@H]2CCCN2C(=O)CNC(=O)[C@H](CCCCN)NC(=O)[C@H](CC(=O)O)NC(=O)CNC(=O)[C@H](CCCNC(=N)N)NC1=O.[Na+].[Na+].[Na+]` (stereo not given in full), the Drug uptake entry in data set [1], in data set [2] and in data set [3] was “Active” each time.
`CC1(C)C(/C=C/C2=C(Oc3ccc(S(=O)(=O)[O-])cc3)C(=C/C=C3/N(CCCCS(=O)(=O)[O-])c4ccc(S(=O)(=O)[O-])cc4C3(C)C)/CCC2)=[N+](CCCCCC(=O)NCCN2C(=O)CC(SC[C@@H](NC(=O)CN3CCN(CC(=O)O)CCN(CC(=O)O)CCN(CC(=O)O)CC3)C(=O)N[C@H]3CSSC[C@@H](C(N)=O)NC(=O)[C@H](CC(=O)O)NC(=O)[C@@H]4CCCN4C(=O)CNC(=O)[C@H](CCCCN)NC(=O)[C@H](CC(=O)O)NC(=O)CNC(=O)[C@H](CCCNC(=N)N)NC3=O)C2=O)c2ccc(S(=O)(=O)[O-])cc21.[Na+].[Na+].[Na+]` (stereo not given in full): the Drug uptake result in data set [1], in data set [2] and in data set [3] was “Active” each time.
In the case of `CC(=O)N[C@@H](CS)C(=O)N[C@H]1CSSC[C@@H](C(N)=O)NC(=O)[C@H](CC(=O)O)NC(=O)[C@@H]2CCCN2C(=O)CNC(=O)[C@H](CCCCN)NC(=O)[C@H](CC(=O)O)NC(=O)CNC(=O)[C@H](CCCNC(=N)N)NC1=O` (Ac-CCRGDKGPDC-NH2; disulfide 2-10), the Drug uptake entry in data set [1] and in data set [2] was “Active” in each case.
Take `N=C(N)NCCC[C@@H]1NC(=O)[C@@H](NC(=O)[C@H](CS)NC(=O)CN2CCN(CC(=O)O)CCN(CC(=O)O)CCN(CC(=O)O)CC2)CSSC[C@@H](C(N)=O)NC(=O)[C@H](CC(=O)O)NC(=O)[C@@H]2CCCN2C(=O)CNC(=O)[C@H](CCCCN)NC(=O)[C@H](CC(=O)O)NC(=O)CNC1=O` ({DOTA}-CCRGDKGPDC-NH2; disulfide 2-10): the Drug uptake result in data set [1] and in data set [2] was “Active” in each case.

(Values after ChEMBL document CHEMBL1667828, “Synthesis and evaluation of new iRGD peptide analogs for tumor optical imaging” (Bioorg Med Chem Lett, 2011).)
